Experiments:
[1] = biological target: T1, Purine nucleoside phosphorylase (Homo sapiens, UniProt P00491); experiment: Inhibition of human purine nucleoside phosphorylase by xanthine-oxidase coupled assay
T1 sequence (P00491 whole entry): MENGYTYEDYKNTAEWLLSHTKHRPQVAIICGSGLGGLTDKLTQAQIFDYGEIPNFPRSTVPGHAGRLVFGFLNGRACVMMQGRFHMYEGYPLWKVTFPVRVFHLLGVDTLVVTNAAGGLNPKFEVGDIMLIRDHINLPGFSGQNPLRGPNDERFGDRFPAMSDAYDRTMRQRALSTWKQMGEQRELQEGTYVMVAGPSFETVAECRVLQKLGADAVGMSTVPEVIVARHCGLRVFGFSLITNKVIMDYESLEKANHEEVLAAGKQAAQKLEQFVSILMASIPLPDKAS

[2] = biological target: T1, Purine nucleoside phosphorylase; experiment: Inhibition of human purine nucleoside phosphorylase assessed as slow onset inhibition constant by xanthine-oxidase coupled assay
[3] = biological target: T2, Purine nucleoside phosphorylase (Plasmodium falciparum, UniProt Q8T9Z7); experiment: Inhibition of Plasmodium falciparum purine nucleoside phosphorylase assessed as slow onset inhibition constant by xanthine-oxidase coupled assay
T2 sequence (Q8T9Z7 whole entry): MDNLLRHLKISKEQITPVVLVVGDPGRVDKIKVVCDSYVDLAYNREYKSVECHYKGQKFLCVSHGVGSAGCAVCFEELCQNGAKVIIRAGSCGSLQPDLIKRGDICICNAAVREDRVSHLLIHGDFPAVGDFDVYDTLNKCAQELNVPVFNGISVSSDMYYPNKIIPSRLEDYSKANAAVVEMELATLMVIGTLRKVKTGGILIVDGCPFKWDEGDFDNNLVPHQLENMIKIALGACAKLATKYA

[4] = biological target: T2, Purine nucleoside phosphorylase; experiment: Inhibition of Plasmodium falciparum purine nucleoside phosphorylase by xanthine-oxidase coupled assay
in vivo [5] = conditions: mouse, ip, 14 nmol
Description: Half life in mouse at 14 nmol, ip administered as single dose

Mus musculus = species: Mus musculus; experiment: animal or person; conditions: Blood, po, read-out: INH
Description: Inhibition of purine nucleoside phosphorylase in mouse blood at 0.2 mg/kg, po administered as single dose

in vivo [6] = conditions: mouse, po, 14 nmol
Description: Half life in mouse at 14 nmol, po administered as single dose

O=c1[nH]cnc2c(CN3C[C@@H](O)[C@](F)(CO)C3)c[nH]c12
Ki [1]: 18 nM
Ki* [2]: 1.82 nM
Ki [3]: 2070 nM
Ki [4]: 260 nM

O=c1[nH]cnc2c(CN3C[C@H](O)[C@@](F)(CO)C3)c[nH]c12 (racemic)
Ki [3]: 23.3 nM
Ki [4]: 3.6 nM

O=c1[nH]cnc2c(CN3C[C@H](O)[C@@](F)(CO)C3)c[nH]c12
half-life (in vivo [5]): < 0.25 h
inhibition in vivo at 0.2 mg/kg (Mus musculus): 80%
Ki [1]: 0.33 nM
Ki* [2]: 0.032 nM
Ki [3]: 19 nM
Ki [4]: 2.63 nM
half-life (in vivo [6]): 20 h

O=c1[nH]cnc2c(CN3C[C@@H](CO)[C@H](O)C3)c[nH]c12
Ki [1]: 0.38 nM
Ki [3]: 1700 nM
Ki [4]: 80 nM

— ChEMBL document CHEMBL1140139, “A beta-fluoroamine inhibitor of purine nucleoside phosphorylase” (J Med Chem, 2008)
